Residue numbers refer to the chain shown, from its start. Like-named read-outs stand apart in the source and are kept apart here.
Tests used:
mutant MGL = target: T1, mutant MGL (Homo sapiens, UniProt Q99685, L169S/L176S); assay: MGL ThermoFluor assay - mutant; type: binding
T1 sequence (Q99685 1-303 L169S/L176S): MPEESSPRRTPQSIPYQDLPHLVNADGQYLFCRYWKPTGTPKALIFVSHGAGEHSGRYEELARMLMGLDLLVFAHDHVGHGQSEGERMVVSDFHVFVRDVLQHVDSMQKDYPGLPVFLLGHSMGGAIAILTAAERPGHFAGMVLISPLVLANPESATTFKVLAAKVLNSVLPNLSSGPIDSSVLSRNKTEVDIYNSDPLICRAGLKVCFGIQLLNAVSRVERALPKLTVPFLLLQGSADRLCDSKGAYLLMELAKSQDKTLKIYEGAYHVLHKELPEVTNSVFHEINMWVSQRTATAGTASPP

[1] = target: T2, purified wild type MGL (wt-MGLL 6H-11-313) (Homo sapiens, UniProt Q99685)
T2 sequence (Q99685 1-303): T1 sequence (Q99685 1-303 L169S/L176S) with S169L, S176L

[2] = ThermoFluor concentration-response, read-out: MGL mutant ThermoFluor Kd
[3] = ThermoFluor, compound concentration measured by qNMR, read-out: MGL mutant ThermoFluor qKd (μM) (using qNMR conc.)
[4] = ThermoFluor thermal stability binding assay, read-out: MGL mutant ThermoFluor Kd
[5] = compound concentration measured by qNMR, read-out: MGL mutant ThermoFluor qKd (using qNMR conc.)
[6] = ThermoFluor, compound concentration measured by qNMR, read-out: MGL mutant ThermoFluor qKd (using qNMR conc.)

SMILES	IC50 [1]	further results
O=C(c1ccc(-n2cnc3ccccc32)cc1)N1CCN(C2CN(C(=O)c3cscn3)C2)CC1 [Cpd 1305]	6680 nM	Kd (mutant MGL; [2]): 0.833 µM
Cc1nc2cc(C(=O)N3CC(N4CCN(C(=O)c5ccccc5)CC4)C3)ccc2n1C1CCCCC1 [Cpd 37, 1-Cyclohexyl-2-methyl-5-({3-[4-(phenylcarbonyl)piperazin-1-yl]azetidin-1-yl}carbonyl)-1H-benzimidazole]	5990 nM	Kd (mutant MGL; [2]): 0.1 µM
O=C(c1ccccc1)N1CCN(C2CN(C(=O)c3ccc4c(ccn4-c4ccc(Cl)c(F)c4)c3)C2)CC1 [Cpd 568]	72 nM	Kd (mutant MGL; [3]): 0.099 µM
O=C(c1ccccc1)N1CCN(C2CN(C(=O)c3cc4cc(-c5ccccc5)ccc4o3)C2)CC1 [Cpd 605]	1860 nM	Kd (mutant MGL; [4]): 1.89 µM
O=C(CN1C(=O)c2ccccc2S1(=O)=O)N1CC(N2CCN(C(=O)c3nccs3)CC2)C1 [Cpd 1432]	> 16700 nM	Kd (mutant MGL; [3]): > 28.4 µM
Cc1c(Cc2ccc(C(F)(F)F)cc2)cccc1C(=O)N1CC(N2CCN(C(=O)c3ccc[nH]3)CC2)C1 [Cpd 1013]	161 nM	Kd (mutant MGL; [2]): 0.76 µM
O=C(Cn1ccc2cc(C(=O)N3CC(N4CCN(C(=O)c5nccs5)CC4)C3)ccc21)N1CCCC1 [Cpd 1035]	4620 nM	Kd (mutant MGL; [5]): 1.01 µM
O=C(c1ccc(Sc2cccc(C(F)(F)F)c2)cc1)N1CC(N2CCN(C(=O)C(F)(F)F)CC2)C1 [Cpd 790]	1420 nM	Kd (mutant MGL; [5]): 2.49 µM
Cc1cc(C(=O)N2CC(N3CCN(C(=O)c4nccs4)CC3)C2)sc1Br [Cpd 723]	181 nM	Kd (mutant MGL; [3]): 0.292 µM
O=C(c1ccc[nH]1)N1CC(N2CCN(C(=O)c3cc4cc(C(F)(F)F)ccc4s3)CC2)C1 [Cpd 722, 1-[1-(1H-Pyrrol-2-ylcarbonyl)azetidin-3-yl]-4-{[5-(trifluoromethyl)-1-benzothiophen-2-yl]carbonyl}piperazine]	180 nM	Kd (mutant MGL; [2]): 0.082 µM
O=C(c1ccc2c(ccn2-c2ccc(F)cc2)c1)N1CC(N2CCN(C(=O)c3ncco3)CC2)C1 [Cpd 1426]	< 5 nM	Kd (mutant MGL; [3]): 0.029 µM
Cc1nc2cc(C(=O)N3CCN(C4CN(C(=O)c5nccs5)C4)CC3)ccc2n1C1CCCCC1 [Cpd 793]	1460 nM	Kd (mutant MGL; [2]): 0.198 µM
O=C(c1ccc2[nH]c(-c3ccccc3)nc2c1)N1CC(N2CCN(C(=O)c3cscn3)CC2)C1 [Cpd 1299]	3860 nM	Kd (mutant MGL; [2]): 1.1 µM
Cc1cc(C(=O)N2CC(N3CCN(C(=O)c4cscn4)CC3)C2)cc2ccn(-c3ccc(F)cc3)c12 [Cpd 1076]	8 nM	Kd (mutant MGL; [5]): 0.02 µM
O=C(c1sc2cc(C(F)(F)F)ccc2c1Cl)N1CC(N2CCN(C(=O)c3cscn3)C(C(F)(F)F)C2)C1 (stereo not shown) [Cpd 833]	4560 nM	Kd (mutant MGL; [3]): 3.33 µM
Cc1nc2cc(C(=O)N3CC(N4CCN(C(=O)c5nccs5)CC4)C3)ccc2n1-c1ccc(C(F)(F)F)cc1 [Cpd 1215]	216 nM	Kd (mutant MGL; [5]): 0.006 µM
O=C(c1cscn1)N1CC(N2CCN(C(=O)c3cc4nc(C(F)(F)F)ccc4[nH]3)CC2)C1 [Cpd 830]	3940 nM	Kd (mutant MGL; [6]): 1.96 µM

SMILES	IC50 [1]	further results
Cc1c(C(=O)N2CC(N3CCN(C(=O)c4cscn4)CC3)C2)nn(-c2ccc(Cl)cc2Cl)c1-c1ccc(Cl)cc1 [Cpd 1198]	143 nM	Kd (mutant MGL; [4]): 0.03 µM
O=C(c1ccccc1)N1CC(N2CCN(C(=O)c3cc4cc(C(F)(F)F)ccc4s3)C(c3ccccc3)C2)C1 (stereo not shown) [Cpd 517]	1340 nM	Kd (mutant MGL; [2]): 0.05 µM
O=C(c1ccc2c(c1)OCCCO2)N1CC(N2CCN(C(=O)c3nccs3)CC2)C1 [Cpd 770]	740 nM	Kd (mutant MGL; [6]): 1.13 µM
O=C(c1ccc(-c2cccc(C(F)(F)F)c2)cc1)N1CC(N2CCN(C(=O)c3ccc(Br)o3)CC2)C1 [Cpd 1335]	< 5 nM	Kd (mutant MGL; [3]): 0.011 µM
O=C(c1nn(-c2ccc(Cl)cc2Cl)c2c1CCCC2)N1CC(N2CCN(C(=O)C(F)(F)F)CC2)C1 [Cpd 1311]	14600 nM	Kd (mutant MGL; [5]): 67.5 µM
O=C(c1ccc(S(=O)(=O)c2cccc(C(F)(F)F)c2)cc1)N1CC(N2CCN(C(=O)C(F)(F)F)CC2)C1 [Cpd 1493]	> 16700 nM	–
O=C(c1ccc(-c2ccccc2)cc1)N1CC(N2CCN(C(=O)C3CC3)CC2)C1 [Cpd 303]	173 nM	–
O=C(c1cscn1)N1CC(N2CCN(C(=O)c3nc4cc(Cl)ccc4s3)CC2)C1 [Cpd 821]	2850 nM	–
Cc1nc2cc(C(=O)N3CC(N4CCN(C(=O)c5cscn5)CC4)C3)ccc2n1C1CCC(F)(F)CC1 [Cpd 1506]	> 16700 nM	–
Cc1c(-c2ccccc2)oc2c(C(=O)N3CCN(C4CN(C(=O)c5cscn5)C4)CC3c3ccccc3)cccc2c1=O (stereo not shown) [Cpd 1436]	> 16700 nM	–
Cn1cc(-c2cccc(C(F)(F)F)c2)c2ccc(C(=O)N3CC(N4CCN(C(=O)c5cscn5)CC4)C3)cc21 [Cpd 1084]	9 nM	–
Cn1c2ccccc2c2cc(C(=O)N3CC(N4CCN(C(=O)c5cscn5)CC4)C3)ccc21 [Cpd 767]	691 nM	–
Cc1nc2cc(C(=O)N3CC(N4CCN(C(=O)c5ccccc5)CC4)C3)ccc2n1-c1ccccc1 [Cpd 635]	838 nM	–
O=C(c1ccc2nc(-c3ccccc3)oc2c1)N1CCN(C2CN(C(=O)c3cscn3)C2)CC1 [Cpd 1275]	1720 nM	–
O=C(c1cscn1)N1CCN(C2CN(C(=O)c3nc4ccc(F)cc4[nH]3)C2)CC1 [Cpd 1442]	> 16700 nM	–
O=C(c1cscn1)N1CCN(C2CN(C(=O)c3nc4cc(Cl)ccc4s3)C2)CC1 [Cpd 855]	8440 nM	–

Continued, in another order:

IC50 [1]	SMILES	further results
< 5 nM	O=C(c1ccc2c(cnn2-c2cccc(OC(F)(F)F)c2)c1)N1CC(N2CCN(C(=O)c3nccs3)CC2)C1 [Cpd 1374]	Kd (mutant MGL; [3]): 0.007 µM
103 nM	CC1(C)C=C(c2ccc(C(=O)N3CC(N4CCN(C(=O)c5nccs5)CC4)C3)cc2)CC(C)(C)O1 [Cpd 706]	Kd (mutant MGL; [2]): 0.001 µM
15 nM	Cc1cn(-c2ccc(C(=O)N3CC(N4CCN(C(=O)c5nccs5)CC4)C3)cc2)c2ccccc12 [Cpd 1413]	Kd (mutant MGL; [3]): 0.003 µM
944 nM	O=C(c1ccc2nc(C(F)(F)F)cc(Cl)c2c1)N1CC(N2CCN(C(=O)c3nccs3)CC2)C1 [Cpd 779]	Kd (mutant MGL; [2]): 0.1 µM
267 nM	O=C(c1ccc(-n2cnc3ccccc32)cc1)N1CC(N2CCN(C(=O)c3nccs3)CC2)C1 [Cpd 1223]	Kd (mutant MGL; [2]): 0.111 µM
163 nM	O=C(c1ccc(Cl)nc1)c1c[nH]c2cc(C(=O)N3CC(N4CCN(C(=O)c5nccs5)CC4)C3)ccc12 [Cpd 949]	Kd (mutant MGL; [2]): 0.178 µM
24 nM	O=C(c1ccc2nn(CCc3ccc(F)cc3)cc2c1)N1CC(N2CCN(C(=O)c3nccs3)CC2)C1 [Cpd 1050, 2-[2-(4-Fluorophenyl)ethyl]-5-({3-[4-(1,3-thiazol-2-ylcarbonyl)piperazin-1-yl]azetidin-1-yl}carbonyl)-2H-indazole]	Kd (mutant MGL; [5]): 0.085 µM
1000 nM	CN(c1ccccc1)S(=O)(=O)c1ccc(C(=O)N2CC(N3CCN(C(=O)c4nccs4)CC3)C2)cc1 [Cpd 946]	Kd (mutant MGL; [6]): 1.69 µM
1620 nM	O=C(c1ccccc1)N1CCN(C2CN(C(=O)c3ccc(Oc4cccc(Cl)c4)nc3)C2)CC1 [Cpd 519, 1-(1-{[6-(3-Chlorophenoxy)pyridin-3-yl]carbonyl}azetidin-3-yl)-4-(phenylcarbonyl)piperazine]	Kd (mutant MGL; [2]): 0.962 µM
171 nM	Cc1nc2cc(C(=O)N3CC(N4CCN(C(=O)c5nccs5)CC4)C3)ccc2n1-c1ccc(F)c(F)c1 [Cpd 1206]	Kd (mutant MGL; [5]): 0.018 µM
706 nM	O=C(c1nccs1)N1CCN(C2CN(C(=O)c3cccc4nc(-c5ccco5)[nH]c34)C2)CC1 [Cpd 1252]	Kd (mutant MGL; [4]): 0.386 µM
5530 nM	O=C(c1ccc2nc(C(F)(F)F)cc(Cl)c2c1)N1CCN(C2CN(C(=O)c3nccs3)C2)CC1 [Cpd 842]	Kd (mutant MGL; [2]): 0.986 µM
< 5 nM	O=C(c1nccs1)N1CCN(C2CN(C(=O)c3ccc4c(ccn4-c4ccc(F)cc4)c3F)C2)CC1 [Cpd 1348, 4-Fluoro-1-(4-fluorophenyl)-5-({3-[4-(1,3-thiazol-2-ylcarbonyl)piperazin-1-yl]azetidin-1-yl}carbonyl)-1H-indole]	Kd (mutant MGL; [5]): 0.002 µM
697 nM	O=C(c1nccs1)N1CCN(C2CN(C(=O)c3ccccc3Nc3cccc(C(F)(F)F)c3)C2)CC1 [Cpd 768]	–
106 nM	O=C(c1ccc(Oc2ccccc2Cl)nc1)N1CC(N2CCN(C(=O)c3nccs3)CC2)C1 [Cpd 708]	–
335 nM	Cc1cccc(Nc2ccccc2C(=O)N2CC(N3CCN(C(=O)c4nccs4)CC3)C2)c1C [Cpd 744]	–
222 nM	Cc1nn(-c2ccc(Cl)cc2)nc1C(=O)N1CC(N2CCN(C(=O)c3nccs3)CC2)C1 [Cpd 1218]	–
< 5 nM	Cn1cc(-c2ccc(F)cc2)c2ccc(C(=O)N3CC(N4CCN(C(=O)c5nccs5)CC4)C3)cc21 [Cpd 1318, 3-(4-Fluorophenyl)-1-methyl-6-({3-[4-(1,3-thiazol-2-ylcarbonyl)piperazin-1-yl]azetidin-1-yl}carbonyl)-1H-indole]	–
447 nM	O=C(c1nccs1)N1CCN(C2CN(C(=O)c3ccccc3Nc3cccc(F)c3)C2)CC1 [Cpd 754]	–
1040 nM	O=C(c1nccs1)N1CCN(C2CN(C(=O)c3ccccc3Nc3ccccc3)C2)CC1 [Cpd 781]	–

From patent publication US8362000B2, “Azetidinyl diamides as monoacylglycerol lipase inhibitors” (Janssen Pharmaceutica NV, priority 2009, dated 2013)
